According to PubChem BioAssay AID1794831:

Biological target: Solute carrier family 2, facilitated glucose transporter member 9 (Homo sapiens) (UniProt Q9NRM0)
Test: SLC2A9 substrate-evoked membrane potential change, dose response, cell-based, membrane potential dye, HEK-293, SLC2A9 overexpression (AID 1794831)
Conditions: HEK-293 SLC2A9 OE, FLIPR membrane potential dye

Solute carrier family 2, facilitated glucose transporter member 9 (Homo sapiens), sequence (Q9NRM0 whole entry, looked up): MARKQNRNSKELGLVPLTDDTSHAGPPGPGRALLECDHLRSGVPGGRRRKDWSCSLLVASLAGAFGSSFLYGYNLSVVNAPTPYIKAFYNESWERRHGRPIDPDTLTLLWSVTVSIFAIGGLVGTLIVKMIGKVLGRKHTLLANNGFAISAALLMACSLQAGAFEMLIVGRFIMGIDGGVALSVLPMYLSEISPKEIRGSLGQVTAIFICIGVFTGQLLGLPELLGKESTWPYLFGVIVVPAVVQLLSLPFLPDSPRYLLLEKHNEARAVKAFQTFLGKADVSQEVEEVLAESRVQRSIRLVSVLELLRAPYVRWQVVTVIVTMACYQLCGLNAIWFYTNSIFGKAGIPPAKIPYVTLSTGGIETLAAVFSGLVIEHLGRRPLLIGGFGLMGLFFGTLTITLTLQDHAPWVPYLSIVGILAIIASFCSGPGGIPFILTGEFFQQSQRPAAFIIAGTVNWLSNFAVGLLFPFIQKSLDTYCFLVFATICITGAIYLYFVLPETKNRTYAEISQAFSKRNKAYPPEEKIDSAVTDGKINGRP

EC50 [µM] | SMILES
300 | O=c1[nH]c(=O)c2[nH]c(=O)[nH]c2[nH]1
1000 | O=C(O)c1cc(=O)[nH]c(=O)[nH]1
